Data published in article PMC7340446, “Optimization of PTH/PTHrP Hybrid Peptides to Derive a Long‐Acting PTH Analog (LA‐PTH)” (JBMR Plus, 2020).
Where no end group is shown, it is not given here.

Assays:
[1] = tested on: thyroparathyroidectomized (TPTX) rats; assay: Repeated daily administration in TPTX rats (11‐day treatment, 12‐day study); assay type: in vivo, rat; conditions: daily s.c. 8.0 nmol/kg
Procedure: TPTX rats were injected i.v. or s.c. with vehicle or vehicle containing a PTH peptide, or orally treated once daily with vehicle (medium‐chain triglyceride; Chugai Pharma Manufacturing, Tokyo, Japan) or vehicle containing alfacalcidol (Chugai Pharma Manufacturing) for 11 days. Blood samples were obtained from the tail or jugular vein immediately before and at times after injection. Urine samples at 0 to 8 hours or 8 to 24 hours, were collected in metabolic cages. sCa and uCa, serum inorganic phosphorus (sPi) and urinary phosphorus (uPi), and creatinine (uCre) were measured with an automatic analyzer (7180; Hitachi, Ltd, Chiyoda, Tokyo, Japan). Urinary deoxypyridinoline (uDpD) was measured using a Metra DPD EIA kit (DS Pharma Biomedical, Osaka, Japan), and the data were normalized to the uCre concentrations. Serum FGF23 was measured using FGF23 ELISA assay (Immunodiagnostik AG, Bensheim, Germany). Serum 1,25‐dihydroxyvitamin D [1,25(OH)2D3] levels were determined by a ELISA immunoassay (Immunodiagnostic System Ltd, Bolden, UK).
Figure 4 Effects of 11‐day treatment (12‐day study) with M‐PTH/PTHrP or alfacalcidol on serum calcium (sCa) in thyroparathyroidectomized (TPTX) rats. TPTX rats were treated for 11 days with daily s.c. injection of either vehicle or M‐PTH/PTHrP, or with daily oral alfacalcidol at the indicated doses, and sham‐surgery control rats were s.c. injected daily with vehicle. The levels of Ca in serum and urine were assessed. Blood samples were collected from the jugular vein at 8 hours (A) and at 24 hours (B) after the last treatment administration, and assessed for total sCa. Total urine was collected in metabolic cages over the time intervals of 0 to 8 hours (C), and 8 to 24 hours (D) and assessed for total urinary Ca. Data are means ± SEM; n = 6 or 5 (2.0 and 4.0 nmol/kg of M‐PTH/PTHrP); *p < 0.05 M‐PTH/PTHrP versus TPTX‐vehicle; #p < 0.05 TPTX vehicle versus sham.
Supplementary file JBM4-4-e10367-s001.pdf: Figure S1 PTH ligand‐induced cAMP‐signaling responses in GP‐2.3 cells Time course of the cAMP‐dependent luminescence response measured at 2‐minute intervals in the presence of each ligand at 10 nM (Ligand on‐phase) and B) Time course of the cAMP‐dependent luminescence response measured at 2‐minute intervals after washout of unbound ligand (Ligand wash‐out phase). GP‐2.3 cells preloaded with luciferin were treated with a concentration of PTH ligand at a concentration of 10 nM for 30 min, and cAMP‐dependent luminescence was measured at two‐minute intervals (ligand‐on phase). The cells were then removed from the plate reader, rinsed twice with media to remove unbound ligand, and then fresh media containing luciferin but lacking ligand was added and luminescence was assessed for additional 90 min (Ligand wash‐out phase). Data are means (± SEM) of four experiments, each performed in triplicate. Figure S2. In vivo calcemic actions of M‐PTH/PTHrP hybrid analogs in normal rats. The indicated M‐PTH/PTHrP hybrid analogs (sequences are shown in Figure 1) along with PTH(1–34) and PTHrP(1–36) controls, were administered at the indicated doses by i.v. injection, and at the indicated time points blood was collected from the tail vein and measured for ionized calcium (Ca^2+). Panels A‐C represent three separate experiments. Data are means ± SEM; n = 6 or 4 (80 nmol/kg of M‐PTH(1‐11)/PTHrP(12–36), M‐PTH(1‐14)/PTHrP(12–36), M‐PTH(1‐17)/PTHrP(18–36) and 1.25 nmol/kg of M‐PTH(1–30)/PTHrP(31–36)). *p < 0.05 versus Vehicle. Figure S3. Effects of 11 days treatment (12 days study) of M‐PTH/PTHrP on serum 1,25(OH) 2 Vitamin‐D3, urinary deoxypyridinoline (Dpd) and serum FGF23 in TPTX rats. Serum and urine samples obtained from the TPTX and sham control rats of the two‐week daily‐administration experiment shown in Figure 4 were analyzed by ELISA for the indicated markers. A) serum 1,25(OH)2Vitamin‐D3. B) urinary deoxypyridinoline (DpD)/Cre. C) serum FGF23. […]

[2] = Pharmacokinetics in normal rats, i.v., plasma peptide by ELISA; assay type: in vivo, rat; conditions: i.v. 10 nmol/kg, plasma with protease inhibitors, n = 4 (M‐PTH/PTHrP) or 3 (PTH(1–34))
Procedure: For pharmacokinetic studies, plasma samples were prepared in the presence of protease inhibitors (aprotinin, leupeptin, EDTA). Plasma levels of PTH(1–34) were assessed by ELISA assay (Human PTH(1–34) Specific ELISA Kit; Immutopics Inc, San Clemente, CA, USA), and plasma levels of M‐PTH/PTHrP were assessed by ELISA assay (PTH‐RP 1–34 Human Enzyme Immunoassay Kit; Peninsula Laboratories International, San Carlos CA, USA) using M‐PTH/PTHrP peptides as standard solutions.
Figure 3 Pharmacodynamic and pharmacokinetic profiles of M‐PTH/PTHrP and PTH(1–34) in rats. (A) Effects of M‐PTH/PTHrP and PTH(1–34) on blood ionized Ca in TPTX rats by i.v. injection. M‐PTH/PTHrP and PTH(1–34) were injected intravenously in TPTX rats at the indicated doses, and blood samples were collected from the tail vein measured for ionized Ca; data are means ± SE; n = 5 or 3 (PTH(1–34)). *p < 0.05, **p < 0.01, ***p < 0.005 M‐PTH/PTHrP or PTH(1–34) versus TPTX‐vehicle. […] M‐PTH/PTHrP and PTH(1–34) each at a dose of 10 nmol/kg were i.v. administered, and blood samples were collected from the jugular vein in the presence of proteinase inhibitors (Aprotinin, Leupeptin, and EDTA) and the plasma samples were assessed for peptide concentration using a hPTHrP(1–34)‐targeted EIA for M‐PTH/PTHrP and an hPTH(1–34)‐targeted ELISA for PTH(1–34). […]

sCa levels ([1]; 8 hours after administration): frank hypercalcemia | uCa at 0 to 8 hours and uDpD at 0 to 24 hours ([1]; after the last administration): increased significantly | Time by which plasma concentration declined to the lowest detection level [2]: ≤ 60 min
Sequence: AVAEIQLMHQRAKWIQDLRRRFFLHHLIAEIHTAEI [M‐PTH(1‐14)/PTHrP(15‐36), [Ala^1,3,12,Gln^10,Arg^11,Trp^14]‐PTH(1‐14)/PTHrP(15–36)]
